The target of one data set is ETa (Homo sapiens (Human), UniProt P25101). The data set is described as follows: Calcium flux assay on ETa cell line. The class given is cell-based. As to conditions: ETa/HEK293, calcium flux, endothelin-1 agonist. As for the experimental part: Test materials: a) cell line: ETa/HEK293; b) vehicles: DMEM, Invitrogen (Cat #11960); Geneticin, Invitrogen (Cat #10131); c) reagent: Fluo-4 Direct, (Invitrogen, Cat #F10471); d) instruments: 384 well Poly-D-Lysine protein coating plate, Greiner #781946; Vi-cell XR Cell Viability Analyzer, Beckman Coulter; Incubator, Thermo.
For the employed agonist endothelin factor (endothelin-1, ET-1) master plate: the agonist was diluted from 50 μM to 15 μM with the test buffer solution.
For antagonist (BQ123, Am J Physiol. 1994 April; 266 (4 Pt 2): H1327-31.) plates and the compound plates: the antagonist and the tested compounds were diluted with DMSO at a gradient ratio of 1:4 to obtain 10 concentration points. Afterwards, 900 nL of each compound solution was transferred to the master plate and 30 μL of the test buffer solution was added. • a) The cell line was removed from the incubator, and 20 μL of 2X Fluo-4 Direct™ buffer solution was added gently by a pipette to a 384-well cell culture plate. • b) The cell plate was incubated at 37° C. for 50 min in the environment of 5% CO2, and then incubated at room temperature for 10 min. • c) The cell plate was removed from the incubator and placed in FLIPR. The compound plates and the tip box were placed in FLIPR. • d) Regarding the EC80 plate: • 1) Operations were conducted on […]. • 2) 10 μL of compound solution was transferred from the EC80 master plate to the cell plate. • 3) Fluorescence signals were read. • 4) The read signals were counted, and the EC80 value of each cell line was calculated using FLIPR. • 5) For the concentration of the compound plate, a solution having a concentration 6 times that of the reference agonist EC80 was formulated. • e) Regarding the compound plate: • 1) Operations were conducted on […]. • 2) 10 μL of compound was transferred to the cell plate. • 3) Fluorescence signals were read. • 4) 10 μL of solution having a concentration 6 times that of the reference agonist EC80 was transferred to the cell plate. • 5) Fluorescence signals were read. • f) Data analysis by Prism
On the technique in general: Calcium assays in cells follow changes in intracellular calcium, usually with a dye or a luminescent sensor.

For another data set, the target named is AT1 (Homo sapiens (Human), UniProt P30556). Kind of data set: Calcium flux assay on AT1 cell line. Type of data set: cell-based. The settings on record: AT1/HEK293, calcium flux, angiotensin II agonist. As to the method: Test materials: a) cell line: AT1/HEK293; b) vehicles: F12, Invitrogen (Cat #11765-047); FBS, Corning (Cat #35-076-CV); Geneticin, Invitrogen (Cat #10131); c) reagent: Fluo-4 Direct, (Invitrogen, Cat #F10471); d) instruments: 384 well Poly-D-Lysine protein coating plate, Greiner #781946; Vi-cell XR Cell Viability Analyzer, Beckman Coulter; Incubator, Thermo.
For the agonist (angiotensin II) master plate, the agonist solution was diluted from 1 mM to 200 μM with the test buffer solution. […] Afterwards, 900 nL of each compound solution was transferred to the master plate and 30 μL of the test buffer solution was added. • a) The cell plate was removed from the incubator, and 20 μL of 2X Fluo-4 Direct was added by a pipette to a 384-well cell plate. • b) The cell plate was incubated at 37° C. for 50 min in the environment of 5% CO2, and then incubated at room temperature for 10 min. • c) The cell plate was removed from the incubator and placed in FLIPR. The compound plates and the tip box were placed in FLIPR. • d) Regarding the EC80 plate: • 1) Operations were conducted on […]. • 2) 10 μL of compound solution was transferred from the EC80 master plate to the cell plate. • 3) Fluorescence signals were read. • 4) The read signals were counted, and the EC80 value of each cell line was calculated using FLIPR. • 5) For the concentration of the compound plate, a solution having a concentration 6 times that of the reference agonist EC80 was formulated. • e) Regarding the compound plate: • 1) Operations were conducted on […]. • 2) 10 μL of compound was transferred to the cell plate. • 3) Fluorescence signals were read. • 4) 10 μL of solution having a concentration 6 times that of the reference agonist EC80 was transferred. • 5) Fluorescence signals were read. • f) Data analysis by Prism

Data set [1] is described as follows: Experiment on water solubility (HPLC-UV). The class given is physicochemical. As to the method:
The detection was carried out in accordance with the high performance liquid chromatography (General Principles 0512 of Chinese Pharmacopoeia Volume IV (2020)):
Chromatographic conditions for the HPLC-UV method: mobile phase: 0.02 M KH2PO4 aqueous solution-acetonitrile (90:10), gradient elution; chromatographic column: C18; detection wavelength: 210 nm. The water solubility was calculated based on the peak area by the external standard method.

Converted amounts (≈) assume the structure as drawn. Like-named read-outs stand apart in the source and are kept apart here. Residues, ends and D or L forms follow the SMILES beside them. Bounds are passed on as bounds.

Sequence of AT1 (P30556 whole entry): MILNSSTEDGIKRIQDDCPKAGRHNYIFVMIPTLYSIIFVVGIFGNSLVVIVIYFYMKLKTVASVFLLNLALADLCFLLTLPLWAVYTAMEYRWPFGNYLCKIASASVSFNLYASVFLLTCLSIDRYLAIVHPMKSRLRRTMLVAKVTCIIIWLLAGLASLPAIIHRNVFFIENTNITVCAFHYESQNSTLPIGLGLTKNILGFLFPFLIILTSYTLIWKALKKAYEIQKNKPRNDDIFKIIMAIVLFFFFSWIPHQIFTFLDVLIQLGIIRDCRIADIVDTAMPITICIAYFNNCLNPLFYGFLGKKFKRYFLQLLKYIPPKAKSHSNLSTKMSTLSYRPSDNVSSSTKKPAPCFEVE
Sequence of ETa (P25101 21-427): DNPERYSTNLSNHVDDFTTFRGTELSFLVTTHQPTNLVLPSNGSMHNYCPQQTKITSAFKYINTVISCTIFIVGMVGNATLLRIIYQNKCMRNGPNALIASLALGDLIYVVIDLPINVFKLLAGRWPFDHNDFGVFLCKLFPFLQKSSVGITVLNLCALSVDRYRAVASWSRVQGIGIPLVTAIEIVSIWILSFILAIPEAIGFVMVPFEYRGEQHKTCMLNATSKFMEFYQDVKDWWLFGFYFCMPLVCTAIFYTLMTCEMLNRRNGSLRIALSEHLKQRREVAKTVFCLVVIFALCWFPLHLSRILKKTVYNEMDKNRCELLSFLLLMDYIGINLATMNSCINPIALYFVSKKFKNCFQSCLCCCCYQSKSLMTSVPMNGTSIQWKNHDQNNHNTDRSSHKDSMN

Turning to `CCCCC1=N[C@]2(C[C@H]3C[C@H]3C2)C(=O)N1Cc1ccc(-c2ccccc2S(=O)(=O)Nc2noc(C)c2C)c(CN(C)C(=O)CC(C)(C)C)c1` [Example 6], the 50% inhibitory concentration (IC50) (commonly the point on the concentration scale where inhibition reaches its midpoint) at ETa (read-out: IC50 against ETa) stood at 17.6 nM; at AT1 (read-out: IC50 against AT1), 258 nM.
For `CCCCC1=N[C@]2(C[C@H]3C[C@H]3C2)C(=O)N1Cc1ccc(-c2ccccc2S(=O)(=O)Nc2noc(C)c2C)c(COCC)c1` [Example 4], the IC50 at ETa (read-out: IC50 against ETa) was 132 nM; at AT1 (read-out: IC50 activity against AT1 (class)) it was 1 to 10 nM; on AT1 (read-out: IC50 against AT1), 4.78 nM.
With `CCCCC1=NC2(CC3(CC3)C2)C(=O)N1Cc1ccc(-c2ccccc2S(=O)(=O)Nc2noc(C)c2C)c(COCC)c1` [Example 1], the 50% inhibitory concentration (IC50) on ETa (read-out: IC50 against ETa) is 24.6 nM; at AT1 (read-out: IC50 against AT1), 2.9 nM. Further, the solubility – broadly, the concentration that dissolves in the medium under given conditions – in data set [1] (aqueous medium at pH 7.4 (buffer not named), pH 7.4, aqueous buffer, pH7.4, read-out: Solubility pH7.4) was 370 µg/mL (≈ 612 µM); in data set [1] (pH 1.6, fassgf or other biorelevant, FaSSGF (pH1.6), read-out: Solubility FaSSGF (pH1.6)), greater than 1000 µg/mL; in data set [1] (pH 5, FeSSIF (pH5.0), read-out: Solubility FeSSIF (pH5.0)), 200 µg/mL (≈ 331 µM); in data set [1] (pH 6.5, FaSSIF (pH6.5), read-out: Solubility FaSSIF (pH6.5)), 610 µg/mL (≈ 1010 µM).
As to `CC(C)C[C@@H]1NC(=O)[C@@H](C(C)C)NC(=O)[C@@H]2CCCN2C(=O)[C@@H](CC(=O)O)NC(=O)[C@@H](Cc2c[nH]c3ccccc23)NC1=O` [BQ123, reference compound] (HELM PEPTIDE1{L.[dW].[dD].P.[dV]}$PEPTIDE1,PEPTIDE1,1:R1-5:R2$$$V2.0), the results for the 50% inhibitory concentration (IC50) on ETa (read-out: IC50 activity against ETa (class)) and at ETa (read-out: IC50 against ETa) were 1 to 10 nM and 2.56 nM, respectively.

(Values after US20240417395A1, “DUAL ANTAGONIST AND USE THEREOF” (NICOYA THERAPEUTICS (SHANGHAI) CO., LTD, priority 2021, published 2024).)
